Measured values taken from ChEMBL document CHEMBL5614421, “Structure-activity relationship study of Pseudellone C as anti-glioma agents by targeting TNF/TNFR signaling pathway” (Eur J Med Chem, 2024).
Activity calls are given as the source filed them. No cut-off for these calls is given here.

Legend:
[1] = Drug concentration in C57BL/6J mouse brain at 9 mg/kg,iv administration measured after 30 mins by LC-MS analysis; format: ADME, organism-based; details: read-out: Ct
[2] = tested on: LN-229; experiment: Induction of apoptosis in human LN-229 cells assessed as viable cells at 10 uM incubated for 24 hrs by Annexin V-APC/7-AAD staining based flow cytometric analysis (reference value: 95.4 %); format: functional; details: read-out: Activity
[3] = tested on: U-87 MG; experiment: Induction of apoptosis in human U-87 MG cells assessed as viable cells at 20 uM incubated for 24 hrs by Annexin V-APC/7-AAD staining based flow cytometric analysis (reference value: 94 %); format: functional, U-87MG ATCC; details: read-out: Activity
[4] = tested on: U-87 MG; experiment: Induction of apoptosis in human U-87 MG cells assessed as early apoptotic cells at 10 uM incubated for 24 hrs by Annexin V-APC/7-AAD staining based flow cytometric analysis (reference value: 1.59 %); format: functional, U-87MG ATCC
[5] = tested on: U-87 MG; experiment: Induction of apoptosis in human U-87 MG cells assessed as early apoptotic cells at 20 uM incubated for 24 hrs by Annexin V-APC/7-AAD staining based flow cytometric analysis (reference value: 1.59 %); format: functional, U-87MG ATCC
[6] = tested on: U-87 MG; experiment: Induction of apoptosis in human U-87 MG cells assessed as late apoptotic cells at 5 uM incubated for 24 hrs by Annexin V-APC/7-AAD staining based flow cytometric analysis (reference value: 4.22 %); format: functional, U-87MG ATCC
[7] = tested on: U-87 MG; experiment: Induction of apoptosis in human U-87 MG cells assessed as late apoptotic cells at 20 uM incubated for 24 hrs by Annexin V-APC/7-AAD staining based flow cytometric analysis (reference value: 4.22 %); format: functional, U-87MG ATCC
[8] = tested on: U-87 MG; experiment: Induction of apoptosis in human U-87 MG cells assessed as necrotic cells at 10 uM incubated for 24 hrs by Annexin V-APC/7-AAD staining based flow cytometric analysis (reference value: 0.21 %); format: functional, U-87MG ATCC
[9] = tested on: U-87 MG; experiment: Induction of apoptosis in human U-87 MG cells assessed as necrotic cells at 20 uM incubated for 24 hrs by Annexin V-APC/7-AAD staining based flow cytometric analysis (reference value: 0.21 %); format: functional, U-87MG ATCC
[10] = tested on: LN-229; experiment: Induction of apoptosis in human LN-229 cells assessed as viable cells at 5 uM incubated for 24 hrs by Annexin V-APC/7-AAD staining based flow cytometric analysis (reference value: 95.4 %); format: functional; details: read-out: Activity
[11] = tested on: LN-229; experiment: Induction of apoptosis in human LN-229 cells assessed as early apoptotic cells at 20 uM incubated for 24 hrs by Annexin V-APC/7-AAD staining based flow cytometric analysis (reference value: 0.45 %); format: functional
[12] = tested on: LN-229; experiment: Induction of apoptosis in human LN-229 cells assessed as late apoptotic cells at 20 uM incubated for 24 hrs by Annexin V-APC/7-AAD staining based flow cytometric analysis (reference value: 3.56 %); format: functional
[13] = tested on: LN-229; experiment: Induction of apoptosis in human LN-229 cells assessed as necrotic cells at 10 uM incubated for 24 hrs by Annexin V-APC/7-AAD staining based flow cytometric analysis (reference value: 0.56 %); format: functional
[14] = tested on: LN-229; experiment: Induction of apoptosis in human LN-229 cells assessed as necrotic cells at 20 uM incubated for 24 hrs by Annexin V-APC/7-AAD staining based flow cytometric analysis (reference value: 0.56 %); format: functional
[15] = tested on: U-87 MG; experiment: Induction of apoptosis in human U-87 MG cells assessed as viable cells at 20 uM incubated for 12 hrs by Annexin V-APC/7-AAD staining based flow cytometric analysis (reference value: 94.6 %); format: functional, U-87MG ATCC; details: read-out: Activity
[16] = tested on: U-87 MG; experiment: Induction of apoptosis in human U-87 MG cells assessed as late apoptotic cells at 20 uM incubated for 12 hrs by Annexin V-APC/7-AAD staining based flow cytometric analysis (reference value: 3.44 %); format: functional, U-87MG ATCC
[17] = tested on: U-87 MG; experiment: Induction of apoptosis in human U-87 MG cells assessed as late apoptotic cells at 20 uM incubated for 24 hrs by Annexin V-APC/7-AAD staining based flow cytometric analysis (reference value: 3.44 %); format: functional, U-87MG ATCC
[18] = tested on: U-87 MG; experiment: Induction of apoptosis in human U-87 MG cells assessed as necrotic cells at 20 uM incubated for 48 hrs by Annexin V-APC/7-AAD staining based flow cytometric analysis (reference value: 1 %); format: functional, U-87MG ATCC
[19] = tested on: LN-229; experiment: Induction of apoptosis in human LN-229 cells assessed as viable cells at 20 uM incubated for 12 hrs by Annexin V-APC/7-AAD staining based flow cytometric analysis (reference value: 91.7 %); format: functional; details: read-out: Activity
[20] = tested on: LN-229; experiment: Induction of apoptosis in human LN-229 cells assessed as early apoptotic cells at 20 uM incubated for 24 hrs by Annexin V-APC/7-AAD staining based flow cytometric analysis (reference value: 2.46 %); format: functional
[21] = tested on: U-87 MG; experiment: Induction of apoptosis in human U-87 MG cells assessed as late apoptotic cells at 20 uM incubated for 24 hrs by Annexin V-APC/7-AAD staining based flow cytometric analysis (reference value: 7.7 %); format: functional, U-87MG ATCC
[22] = tested on: U-87 MG; experiment: Induction of apoptosis in human U-87 MG cells assessed as necrotic cells at 20 uM incubated for 24 hrs by Annexin V-APC/7-AAD staining based flow cytometric analysis (reference value: 3.85 %); format: functional, U-87MG ATCC
[23] = tested on: U-87 MG; experiment: Induction of apoptosis in human U-87 MG cells assessed as early apoptotic cells at 20 uM incubated for 24 hrs in presence of R7050 by Annexin V-APC/7-AAD staining based flow cytometric analysis (reference value: 3.44 %); format: functional, U-87MG ATCC
[24] = tested on: LN-229; experiment: Induction of apoptosis in human LN-229 cells assessed as early apoptotic cells at 20 uM incubated for 24 hrs by Annexin V-APC/7-AAD staining based flow cytometric analysis (reference value: 0.91 %); format: functional
[25] = tested on: LN-229; experiment: Induction of apoptosis in human LN-229 cells assessed as late apoptotic cells at 20 uM incubated for 24 hrs by Annexin V-APC/7-AAD staining based flow cytometric analysis (reference value: 4.86 %); format: functional
[26] = tested on: LN-229; experiment: Induction of apoptosis in human LN-229 cells assessed as necrotic cells at 20 uM incubated for 24 hrs by Annexin V-APC/7-AAD staining based flow cytometric analysis (reference value: 1.95 %); format: functional
[27] = tested on: LN-229; experiment: Induction of apoptosis in human LN-229 cells assessed as late apoptotic cells at 20 uM incubated for 24 hrs in presence of R7050 by Annexin V-APC/7-AAD staining based flow cytometric analysis (reference value: 4.86 %); format: functional
[28] = tested on: U-87 MG; experiment: Induction of apoptosis in human U-87 MG cells at 10 uM incubated for 48 hrs by Annexin V-APC/7-AAD staining based flow cytometric analysis (reference value: 5.43 +/- 0.54 %); format: functional, U-87MG ATCC
[29] = tested on: LN-229; experiment: Induction of apoptosis in human LN-229 cells assessed as upregulation of cleaved caspase-3 expression incubated for 24 hrs by Western blot analysis; format: functional, cell-based
[30] = tested on: U-87 MG; experiment: Induction of apoptosis in human U-87 MG cells assessed as reduction in Bcl-2/Bax ratio at 5 to 20 uM incubated for 24 hrs by Western blot analysis; format: functional, cell-based; details: U-87MG ATCC, dose 5-20 µM
[31] = tested on: LN-229; experiment: Induction of apoptosis in human LN-229 cells assessed as reduction in Bcl-2/Bax ratio at 5 to 20 uM incubated for 24 hrs by Western blot analysis; format: functional, cell-based; details: dose 5-20 µM
[32] = tested on: U-87 MG; experiment: Induction of apoptosis in human U-87 MG cells assessed as upregulation of TNF-alpha gene expression incubated for 24 hrs by transcriptome sequencing analysis; format: functional, cell-based; details: U-87MG ATCC

With `CCCCCCCNC(=O)[C@H](Cc1c[nH]c2ccccc12)NC(=O)C(C)(c1c[nH]c2ccccc12)c1c[nH]c2ccccc12` the concentration at 0.5 h [1] was 241 ng/g, the viability at 10 µM [2] was 88.1% and the viability at 20 µM [3] was 74.3%. For the same compound, the Activity [4] was 4.46%, the Activity [5] was 13.7% and the Activity [6] was 4.92%. The Activity [7] was 11.6%, the Activity [8] was 0.21% and the Activity [9] was 0.47%. It also gave a viability at 5 µM [10] of 95%, an Activity [11] of 13.8% and an Activity [12] of 4.99%. It also gave an Activity [13] of 1.95%, an Activity [14] of 1.42% and a viability at 20 µM [15] of 93.8%. It also gave an Activity [16] of 3.62%, an Activity [17] of 4.03% and an Activity [18] of 4.65%. The viability at 20 µM [19] was 92.7%, the Activity [20] was 13% and the Activity [21] was 10%. It also gave an Activity [22] of 8.66%, an Activity [23] of 8.66% and an Activity [24] of 24.2%. For the same compound, the Activity [25] was 7.62%, the Activity [26] was 1.94% and the Activity [27] was 5.88%. The Activity [28] was 17.37%, the Activity [29] was “Dose-Dependent Effect” and the Activity [30] was “Active”. The Activity [31] was “Active” and the Activity [32] was “Active”.
